PubChem BioAssay (NCI)
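Following 48 hours of exposure in 96-well plates, responses at five concentrations were used to interpolate endpoints linearly. Abbreviation: GI50, concentration required for 50% inhibition of growth. Definition used: TGI = concentration required for complete inhibition of growth.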

Experiments:
Experiment in all cases: NCI anticancer screen, dose series, 48 h
786-0 renal = test system: 786-0 renal
A498 renal = test system: A498 renal
ACHN renal = test system: ACHN renal
BT-549 breast = test system: BT-549 breast
CAKI-1 renal = test system: CAKI-1 renal
CCRF-CEM leukemia = test system: CCRF-CEM leukemia
DU-145 prostate = test system: DU-145 prostate
EKVX NSCLC = test system: EKVX NSCLC
HCC-2998 colon = test system: HCC-2998 colon
HCT-116 colon = test system: HCT-116 colon
HCT-15 colon = test system: HCT-15 colon
HL-60(TB) leukemia = test system: HL-60(TB) leukemia
HOP-62 NSCLC = test system: HOP-62 NSCLC
HOP-92 NSCLC = test system: HOP-92 NSCLC
HS 578T breast = test system: HS 578T breast
HT29 colon = test system: HT29 colon
IGROV1 ovarian = test system: IGROV1 ovarian
K-562 leukemia = test system: K-562 leukemia
KM12 colon = test system: KM12 colon
LOX IMVI melanoma = test system: LOX IMVI melanoma
M14 melanoma = test system: M14 melanoma
MALME-3M melanoma = test system: MALME-3M melanoma
MCF7 breast = test system: MCF7 breast
MDA-MB-231 breast = test system: MDA-MB-231 breast
MDA-MB-435 = test system: MDA-MB-435
MDA-MB-468 breast = test system: MDA-MB-468 breast
MOLT-4 leukemia = test system: MOLT-4 leukemia
NCI-H226 lung = test system: NCI-H226 lung
NCI-H23 lung = test system: NCI-H23 lung
NCI-H460 lung = test system: NCI-H460 lung
NCI-H522 lung = test system: NCI-H522 lung
NCI/ADR-RES ovarian = test system: NCI/ADR-RES ovarian
OVCAR-3 ovarian = test system: OVCAR-3 ovarian
OVCAR-4 ovarian = test system: OVCAR-4 ovarian
OVCAR-5 ovarian = test system: OVCAR-5 ovarian
OVCAR-8 ovarian = test system: OVCAR-8 ovarian
PC-3 prostate = test system: PC-3 prostate
RPMI-8226 leukemia = test system: RPMI-8226 leukemia
RXF 393 renal = test system: RXF 393 renal
SF-268 CNS = test system: SF-268 CNS
SF-295 CNS = test system: SF-295 CNS
SF-539 CNS = test system: SF-539 CNS
SK-MEL-2 melanoma = test system: SK-MEL-2 melanoma
SK-MEL-28 melanoma = test system: SK-MEL-28 melanoma
SK-MEL-5 melanoma = test system: SK-MEL-5 melanoma
SK-OV-3 ovarian = test system: SK-OV-3 ovarian
SN12C renal = test system: SN12C renal
SNB-19 CNS = test system: SNB-19 CNS
SNB-75 CNS = test system: SNB-75 CNS
SR leukemia = test system: SR leukemia
SW-620 colon = test system: SW-620 colon
T-47D breast = test system: T-47D breast
TK-10 renal = test system: TK-10 renal
U251 CNS = test system: U251 CNS
UACC-257 melanoma = test system: UACC-257 melanoma
UACC-62 melanoma = test system: UACC-62 melanoma
UO-31 renal = test system: UO-31 renal

C=C(C)[C@@H]1CC[C@]2(C(=O)OC)CC[C@]3(C)[C@H](CC[C@@H]4[C@@]5(C)CC[C@H](N)C(C)(C)[C@@H]5CC[C@]43C)[C@@H]12
GI50 (786-0 renal): 1700 nM
TGI (786-0 renal): 3330 nM
GI50 (A498 renal): 1450 nM
TGI (A498 renal): 2780 nM
GI50 (ACHN renal): 1700 nM
TGI (ACHN renal): 3070 nM
GI50 (BT-549 breast): 2470 nM
TGI (BT-549 breast): 5590 nM
GI50 (CAKI-1 renal): 1620 nM
TGI (CAKI-1 renal): 3020 nM
GI50 (CCRF-CEM leukemia): 1800 nM
TGI (CCRF-CEM leukemia): 4680 nM
GI50 (DU-145 prostate): 1850 nM
TGI (DU-145 prostate): 3370 nM
GI50 (EKVX NSCLC): 1830 nM
TGI (EKVX NSCLC): 3320 nM
GI50 (HCC-2998 colon): 1650 nM
TGI (HCC-2998 colon): 3070 nM
GI50 (HCT-116 colon): 1480 nM
TGI (HCT-116 colon): 3260 nM
GI50 (HCT-15 colon): 1640 nM
TGI (HCT-15 colon): 3050 nM
GI50 (HL-60(TB) leukemia): 1440 nM
TGI (HL-60(TB) leukemia): 3830 nM
GI50 (HOP-62 NSCLC): 1830 nM
TGI (HOP-62 NSCLC): 3550 nM
GI50 (HOP-92 NSCLC): 1580 nM
TGI (HOP-92 NSCLC): 3130 nM
GI50 (HS 578T breast): 2000 nM
TGI (HS 578T breast): 4290 nM
GI50 (HT29 colon): 1830 nM
TGI (HT29 colon): 3510 nM
GI50 (IGROV1 ovarian): 1740 nM
TGI (IGROV1 ovarian): 3180 nM
GI50 (K-562 leukemia): 711 nM
TGI (K-562 leukemia): 12700 nM
GI50 (KM12 colon): 1770 nM
TGI (KM12 colon): 3310 nM
GI50 (LOX IMVI melanoma): 1330 nM
TGI (LOX IMVI melanoma): 2640 nM
GI50 (M14 melanoma): 1990 nM
TGI (M14 melanoma): 4280 nM
GI50 (MALME-3M melanoma): 1710 nM
TGI (MALME-3M melanoma): 3090 nM
GI50 (MCF7 breast): 1050 nM
TGI (MCF7 breast): 2340 nM
GI50 (MDA-MB-231 breast): 1780 nM
TGI (MDA-MB-231 breast): 3190 nM
GI50 (MDA-MB-435): 1620 nM
TGI (MDA-MB-435): 3100 nM
GI50 (MDA-MB-468 breast): 1770 nM
TGI (MDA-MB-468 breast): 3260 nM
GI50 (MOLT-4 leukemia): 2500 nM
TGI (MOLT-4 leukemia): 6020 nM
GI50 (NCI-H226 lung): 1940 nM
TGI (NCI-H226 lung): 3770 nM
GI50 (NCI-H23 lung): 1780 nM
TGI (NCI-H23 lung): 3310 nM
GI50 (NCI-H460 lung): 1430 nM
TGI (NCI-H460 lung): 2860 nM
GI50 (NCI-H522 lung): 1750 nM
TGI (NCI-H522 lung): 3390 nM
GI50 (NCI/ADR-RES ovarian): 1850 nM
TGI (NCI/ADR-RES ovarian): 3510 nM
GI50 (OVCAR-3 ovarian): 1490 nM
TGI (OVCAR-3 ovarian): 2900 nM
GI50 (OVCAR-4 ovarian): 1830 nM
TGI (OVCAR-4 ovarian): 3580 nM
GI50 (OVCAR-5 ovarian): 1690 nM
TGI (OVCAR-5 ovarian): 3130 nM
GI50 (OVCAR-8 ovarian): 2040 nM
TGI (OVCAR-8 ovarian): 4400 nM
GI50 (PC-3 prostate): 1890 nM
TGI (PC-3 prostate): 4070 nM
GI50 (RPMI-8226 leukemia): 2720 nM
TGI (RPMI-8226 leukemia): 8810 nM
GI50 (RXF 393 renal): 1580 nM
TGI (RXF 393 renal): 3070 nM
GI50 (SF-268 CNS): 1810 nM
TGI (SF-268 CNS): 3490 nM
GI50 (SF-295 CNS): 1700 nM
TGI (SF-295 CNS): 3130 nM
GI50 (SF-539 CNS): 1630 nM
TGI (SF-539 CNS): 3000 nM
GI50 (SK-MEL-2 melanoma): 2040 nM
TGI (SK-MEL-2 melanoma): 4300 nM
GI50 (SK-MEL-28 melanoma): 1680 nM
TGI (SK-MEL-28 melanoma): 3080 nM
GI50 (SK-MEL-5 melanoma): 1930 nM
TGI (SK-MEL-5 melanoma): 3790 nM
GI50 (SK-OV-3 ovarian): 2220 nM
TGI (SK-OV-3 ovarian): 5450 nM
GI50 (SN12C renal): 1750 nM
TGI (SN12C renal): 3270 nM
GI50 (SNB-19 CNS): 1720 nM
TGI (SNB-19 CNS): 3240 nM
GI50 (SNB-75 CNS): 1480 nM
TGI (SNB-75 CNS): 2920 nM
GI50 (SR leukemia): 379 nM
TGI (SR leukemia): 3050 nM
GI50 (SW-620 colon): 1140 nM
TGI (SW-620 colon): 2490 nM
GI50 (T-47D breast): 1880 nM
TGI (T-47D breast): 3820 nM
GI50 (TK-10 renal): 1890 nM
TGI (TK-10 renal): 3470 nM
GI50 (U251 CNS): 1750 nM
TGI (U251 CNS): 3270 nM
GI50 (UACC-257 melanoma): 1890 nM
TGI (UACC-257 melanoma): 4020 nM
GI50 (UACC-62 melanoma): 1770 nM
TGI (UACC-62 melanoma): 3240 nM
GI50 (UO-31 renal): 1510 nM
TGI (UO-31 renal): 2840 nM
